For data set [1], the system named is BDNF-gene exon-IV promoter construct. Briefly: Luciferase-based reporter gene assay with BDNF-gene exon-IV promoter construct in SH-SY5Y cells. The conditions noted are these: 48 h incubation, fluoxetine 3, 5, 10 μM or venlafaxine 10, 30, 50 μM; for change of luciferase reporter gene activity (luminescence), methylated construct: Sss1-methylated BDNF-gene exon-IV promoter in pGL4.14, SH-SY5Y; for change of luciferase reporter gene activity (luminescence), unmethylated construct: unmethylated BDNF-gene exon-IV promoter in pGL4.14, SH-SY5Y, hydrochloride. The data set is classed as cell-based, human. (Reporter assays use an easily measured gene product as a stand-in for the process of interest.)

The next data set has as its system SH-Sy5Y cells. The data set is described as follows: CellTiter-Glo Luminescent Cell Viability Assay (cytotoxic concentrations). Conditions: 10 μM, 30 μM, 50 μM Venlafaxine. As to the method:
Cells were maintained at 37° C. in a humidified atmosphere of 5% CO2 in atmosphere. To determine cytotoxic concentrations of fluoxetine and venlafaxine by CellTiter-Glo Luminescent Cell Viability Assay (Promega, Madison, Wis.) 1.5×10^5 cells were plated in 96 well plates and grown for 24 hours. Three wells at a time were incubated with different amounts of fluoxetine hydrochloride or venlafaxine hydrochloride (both Sigma-Aldrich Germany, Taufkirchen), both solved in sterile deionized water at 4 mg/mL. […] After incubation for 24 hours cytotoxicity was documented by microscope photography and measured using a GloMax Multi+ Detection System (Promega, Madison, Wis.).
(In ATP-based viability assays light output follows the ATP content of the culture.)

“Also recorded” adds a separate entry of the source. Counter-ions that a name gives are not always drawn.

For the compound `CNCCC(Oc1ccc(C(F)(F)F)cc1)c1ccccc1` (centres unmarked) [fluoxetine, fluoxetine hydrochloride], in data set [1], the “change of luciferase reporter gene activity (luminescence), methylated construct” value was “did not change expression levels” and the “change of luciferase reporter gene activity (luminescence), unmethylated construct” value is “decrease of reporter gene activity; also recorded: significant decrease of luciferase expression”.

For `COc1ccc(C(CN(C)C)C2(O)CCCCC2)cc1` (centres unmarked) [venlafaxine, venlafaxine hydrochloride], in data set [1], the “change of luciferase reporter gene activity (luminescence), methylated construct” value is “did not change expression levels” and the “change of luciferase reporter gene activity (luminescence), unmethylated construct” value is given as “decrease of reporter gene activity; also recorded: significant decrease of luciferase expression”. Moreover, in the data set with SH-Sy5Y cells, the “cytotoxicity at the concentrations used” value is given as “non-toxic”.

These data come from patent US10059996B2, “Susceptibility to and stratification for monoaminergic antidepressants” (priority 2012, dated 2018).
